This is an account of results in ChEMBL document CHEMBL2331297, “Potent and selective tariquidar bioisosters as potential PET radiotracers for imaging P-gp” (Bioorg Med Chem Lett, 2013).

Data set [1] concerns the target T1, MDR1 (ABCB1, P-gp) (Homo sapiens, UniProt P08183). Description: Ratio of MC90 EC50 to compound EC50 for MDR1 (unknown origin) by fluorometric analysis. The settings on record: not told, read-out: Ratio EC50.
For data set [2], the target named is ATP-dependent translocase ABCB1 (Homo sapiens, UniProt P08183). Description: Activity at MDR1 (unknown origin) expressed in MDCK cells using calcein AM as substrate incubated for 30 mins prior to substrate addition measured after 30 mins by fluorometric analysis. It is filed as cell-based.
ATP-dependent translocase ABCB1, sequence (P08183 whole entry): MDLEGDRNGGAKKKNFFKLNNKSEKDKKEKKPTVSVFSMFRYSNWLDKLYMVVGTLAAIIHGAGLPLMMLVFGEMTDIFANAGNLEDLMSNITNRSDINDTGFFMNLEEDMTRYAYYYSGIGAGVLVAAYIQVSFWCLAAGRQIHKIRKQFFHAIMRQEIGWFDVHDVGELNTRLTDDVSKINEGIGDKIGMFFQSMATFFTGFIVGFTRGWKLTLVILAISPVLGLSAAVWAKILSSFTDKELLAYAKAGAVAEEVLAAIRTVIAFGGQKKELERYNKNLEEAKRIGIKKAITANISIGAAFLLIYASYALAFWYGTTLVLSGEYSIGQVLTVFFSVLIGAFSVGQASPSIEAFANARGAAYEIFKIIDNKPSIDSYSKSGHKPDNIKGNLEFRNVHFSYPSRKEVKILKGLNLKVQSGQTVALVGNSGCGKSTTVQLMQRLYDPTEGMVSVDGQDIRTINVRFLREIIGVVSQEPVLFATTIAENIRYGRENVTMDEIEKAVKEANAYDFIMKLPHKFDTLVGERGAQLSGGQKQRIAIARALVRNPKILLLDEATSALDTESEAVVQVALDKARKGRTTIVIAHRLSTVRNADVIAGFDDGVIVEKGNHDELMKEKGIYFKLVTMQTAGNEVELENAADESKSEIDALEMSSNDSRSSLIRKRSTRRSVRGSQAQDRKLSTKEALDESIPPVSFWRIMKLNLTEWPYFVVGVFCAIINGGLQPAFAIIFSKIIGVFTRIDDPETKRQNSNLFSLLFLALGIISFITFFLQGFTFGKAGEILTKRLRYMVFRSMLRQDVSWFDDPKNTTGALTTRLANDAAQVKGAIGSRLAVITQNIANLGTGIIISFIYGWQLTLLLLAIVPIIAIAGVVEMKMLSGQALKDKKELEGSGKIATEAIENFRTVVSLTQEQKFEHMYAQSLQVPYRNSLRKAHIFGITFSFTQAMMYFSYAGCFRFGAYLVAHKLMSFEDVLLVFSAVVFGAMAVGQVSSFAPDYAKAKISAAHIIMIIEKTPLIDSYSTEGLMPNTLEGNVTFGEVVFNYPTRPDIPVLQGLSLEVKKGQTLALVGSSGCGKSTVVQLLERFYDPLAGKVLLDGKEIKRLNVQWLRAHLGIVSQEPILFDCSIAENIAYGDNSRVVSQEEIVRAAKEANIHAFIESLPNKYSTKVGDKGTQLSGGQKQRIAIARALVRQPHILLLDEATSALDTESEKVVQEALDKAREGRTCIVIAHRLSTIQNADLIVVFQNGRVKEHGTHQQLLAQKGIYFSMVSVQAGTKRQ
The target of data set [3] is T2, Broad substrate specificity ATP-binding cassette transporter ABCG2 (Homo sapiens, UniProt Q9UNQ0).
T2 sequence (Q9UNQ0 whole entry): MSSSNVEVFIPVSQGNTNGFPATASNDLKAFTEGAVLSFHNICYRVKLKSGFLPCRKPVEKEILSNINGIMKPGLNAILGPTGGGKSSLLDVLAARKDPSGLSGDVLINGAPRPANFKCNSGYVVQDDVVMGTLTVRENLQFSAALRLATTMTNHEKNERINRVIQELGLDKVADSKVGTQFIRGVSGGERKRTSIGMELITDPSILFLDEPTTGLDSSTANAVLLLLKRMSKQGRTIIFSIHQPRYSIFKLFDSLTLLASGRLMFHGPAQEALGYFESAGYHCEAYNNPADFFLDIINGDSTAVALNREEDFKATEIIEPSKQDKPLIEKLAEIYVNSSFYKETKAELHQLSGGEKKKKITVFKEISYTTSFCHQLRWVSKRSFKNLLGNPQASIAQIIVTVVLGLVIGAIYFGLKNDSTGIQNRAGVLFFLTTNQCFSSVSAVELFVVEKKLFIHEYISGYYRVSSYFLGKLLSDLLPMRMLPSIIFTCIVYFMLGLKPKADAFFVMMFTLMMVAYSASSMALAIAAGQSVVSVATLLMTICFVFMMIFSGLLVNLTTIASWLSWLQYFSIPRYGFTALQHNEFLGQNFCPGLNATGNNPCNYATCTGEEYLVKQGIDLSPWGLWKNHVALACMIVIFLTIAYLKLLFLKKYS
Briefly: Activity at BCRP (unknown origin) expressed in MDCK cells using […] as substrate incubated for 30 mins prior to substrate addition measured after 30 mins by fluorometric analysis. Type of data set: cell-based.

Data set [4] deals with T1, MDR1 (ABCB1, P-gp). Description: Activity at MDR1 (unknown origin) expressed in MDCK cells assessed as ATPase activity at 50 uM after 2 hrs by ATPlite assay. The settings on record: MDCK cells expressing MDR1, read-out: Activity. It is filed as cell-based.
Data set [5] is described as follows: Efflux ratio of apparent permeability from basolateral to apical to apical to basolateral side of human Caco2 cells after 120 mins. Type of data set: ADME, cell-based. To be noted: Caco-2.
Data set [6] deals with Multidrug resistance-associated protein 1 (Homo sapiens, UniProt P33527). Description: Activity at MRP1 (unknown origin) expressed in MDCK cells using calcein AM as substrate incubated for 30 mins prior to substrate addition measured after 30 mins by fluorometric analysis. Type of data set: cell-based.
Multidrug resistance-associated protein 1, sequence (P33527 whole entry): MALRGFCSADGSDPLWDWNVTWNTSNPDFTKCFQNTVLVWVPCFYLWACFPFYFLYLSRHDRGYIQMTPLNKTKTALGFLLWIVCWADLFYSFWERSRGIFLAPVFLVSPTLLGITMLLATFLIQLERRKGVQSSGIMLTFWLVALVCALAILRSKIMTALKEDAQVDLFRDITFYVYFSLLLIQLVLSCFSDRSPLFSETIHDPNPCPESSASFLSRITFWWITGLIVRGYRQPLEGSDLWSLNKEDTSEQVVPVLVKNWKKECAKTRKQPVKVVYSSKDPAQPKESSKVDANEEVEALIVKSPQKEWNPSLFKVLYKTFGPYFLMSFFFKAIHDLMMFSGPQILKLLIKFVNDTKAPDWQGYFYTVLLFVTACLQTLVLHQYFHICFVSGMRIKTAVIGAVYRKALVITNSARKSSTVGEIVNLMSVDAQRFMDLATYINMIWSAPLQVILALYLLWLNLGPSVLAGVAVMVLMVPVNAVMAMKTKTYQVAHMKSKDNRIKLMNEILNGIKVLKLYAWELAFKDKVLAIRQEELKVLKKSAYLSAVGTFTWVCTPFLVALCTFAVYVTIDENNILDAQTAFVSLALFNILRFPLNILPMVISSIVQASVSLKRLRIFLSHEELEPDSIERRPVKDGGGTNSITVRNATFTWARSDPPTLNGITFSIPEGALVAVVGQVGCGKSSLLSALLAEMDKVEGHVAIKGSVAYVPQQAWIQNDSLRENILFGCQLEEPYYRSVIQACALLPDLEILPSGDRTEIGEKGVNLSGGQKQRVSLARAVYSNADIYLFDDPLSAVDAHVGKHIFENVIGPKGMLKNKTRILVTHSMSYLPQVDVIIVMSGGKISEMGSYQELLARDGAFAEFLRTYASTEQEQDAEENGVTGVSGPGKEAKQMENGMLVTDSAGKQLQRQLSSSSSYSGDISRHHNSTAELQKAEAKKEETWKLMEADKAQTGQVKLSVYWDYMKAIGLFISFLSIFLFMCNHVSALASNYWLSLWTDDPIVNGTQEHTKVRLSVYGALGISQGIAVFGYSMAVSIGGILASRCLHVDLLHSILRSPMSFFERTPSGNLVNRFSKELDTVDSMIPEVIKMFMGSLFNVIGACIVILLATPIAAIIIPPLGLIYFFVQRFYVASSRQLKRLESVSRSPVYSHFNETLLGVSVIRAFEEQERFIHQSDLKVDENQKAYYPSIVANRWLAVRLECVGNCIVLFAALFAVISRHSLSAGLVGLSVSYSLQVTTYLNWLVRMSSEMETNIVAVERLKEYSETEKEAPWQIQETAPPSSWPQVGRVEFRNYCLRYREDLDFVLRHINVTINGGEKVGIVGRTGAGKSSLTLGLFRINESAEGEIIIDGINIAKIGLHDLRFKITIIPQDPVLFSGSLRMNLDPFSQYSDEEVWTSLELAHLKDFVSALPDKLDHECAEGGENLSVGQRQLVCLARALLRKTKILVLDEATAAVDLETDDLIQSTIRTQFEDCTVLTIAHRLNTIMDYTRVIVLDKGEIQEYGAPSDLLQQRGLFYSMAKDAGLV

pEC50: −log10 of the molar value.

T1 sequence (P08183 whole entry): as the sequence (P08183 whole entry) above

Turning to `COc1cc2c(cc1OC)CN(Cc1ccc(Oc3ccc(-c4nc(-c5ccc(F)cc5)cs4)cn3)cc1)CC2`, at MDR1 (ABCB1, P-gp) [1], the selectivity ratio was found to be 10. Further, the pEC50 in data set [2] is 6.39; in data set [3], 6.00; in data set [6] it was under 4.00. Moreover, the activity at 2 h, 50 µM at MDR1 (ABCB1, P-gp) [4] stood at 18%. Besides, the efflux ratio at 2 h in data set [5] amounted to 4.5.
As for `COc1ccc(-c2nc(CN3CCc4cc(OC)c(OC)cc4C3)cs2)cc1`, the pEC50 in data set [2] was 5.71; in data set [3], 4.52; in data set [6], 5.57. Moreover, in data set [5], the efflux ratio at 2 h stood at 6.1.
With `COc1cc2c(cc1OC)CN(Cc1ccc(Oc3ccc(C(N)=O)cn3)cc1)CC2`, the pEC50 was 4.72 in data set [2] and under 4.00 in data set [6].
For the compound `COc1cc2c(cc1OC)CN(Cc1ccc(Oc3ccc(C(N)=S)cn3)cc1)CC2`, the pEC50 is 4.96 in data set [2] and under 4.00 in data set [6].
As for `COc1cccc(-c2csc(-c3ccc(Oc4ccc(CN5CCc6cc(OC)c(OC)cc6C5)cc4)nc3)n2)c1`, the selectivity ratio at MDR1 (ABCB1, P-gp) [1] was found to be 10. Besides, the pEC50 in data set [2] was 6.02; in data set [3], 6.30; in data set [6] it was under 4.00. Further, at MDR1 (ABCB1, P-gp) [4], the activity at 2 h, 50 µM came to 20%. In data set [5], the efflux ratio at 2 h was found to be 2.5.
For `COc1cc2c(cc1OC)CN(Cc1ccc(Oc3ccc(-c4nc(-c5cccc(O)c5)cs4)cn3)cc1)CC2`, the selectivity ratio on MDR1 (ABCB1, P-gp) [1] amounted to 10. The negative logarithm of the EC50 (pEC50) is 6.60 in data set [2], 7.74 in data set [3] and under 4.00 in data set [6]. The activity at 2 h, 50 µM at MDR1 (ABCB1, P-gp) [4] turned out to be 20%. For the same compound, in data set [5], the efflux ratio at 2 h was determined as 0.9.
Take `COc1cc2c(cc1OC)CN(Cc1ccc(Oc3ccc(-c4nc(-c5ccc([N+](=O)[O-])cc5)cs4)cn3)cc1)CC2`: the selectivity ratio at MDR1 (ABCB1, P-gp) [1] turned out to be 10. Also, the results for the pEC50 in data set [2], in data set [3] and in data set [6] were 6.29, 5.00 and under 4.00, respectively. At MDR1 (ABCB1, P-gp) [4], the activity at 2 h, 50 µM was found to be 16%. Moreover, the efflux ratio at 2 h in data set [5] stood at 2.7.
For the compound `COc1ccc(-c2ccc(CN3CCc4cc(OC)c(OC)cc4C3)cc2)cc1`, the pEC50 in data set [2] was 6.22; in data set [3], 4.82; in data set [6] it was 4.68. Further, the efflux ratio at 2 h in data set [5] came to 2.6.
On to `COc1cc2c(cc1OC)CN(CC/C=C1\CCCc3c(OC)cccc31)CC2`, for which the pEC50 in data set [3] was 4.05. The efflux ratio at 2 h in data set [5] came out at 1.64.
Take `COc1cc2c(cc1OC)CN(CCc1ccc(NC(=O)c3cc(OC)c(OC)cc3NC(=O)c3cnc4ccccc4c3)cc1)CC2` [TARIQUIDAR]: the activity at 2 h, 50 µM at MDR1 (ABCB1, P-gp) [4] came to 30%. Besides, the efflux ratio at 2 h in data set [5] was 22.
